“And” between values parts separate entries of the source, which are not always exact repeats. Equal entries are not always repeated.
Experiments:
[1] = tested on: purified tubulin; assay: Inhibition of tubulin assembly (turbidity); format: biochemical; conditions: 10 μM tubulin, 30 °C, turbidity at 350 nm; read-out: Inhibition of tubulin assembly IC50 ± SD
Protocol: The methods used to determine the IC50 values for tubulin assembly and inhibition of [^3H]colchicine binding were recently described in detail.[96] In brief, for the assembly assay, 0.25 mL reaction mixtures contained 1.0 mg mL^−1 (10 μM) tubulin, 0.8 M monosodium glutamate (pH 6.6 with HCl in 2.0 M stock solution), 4% (v/v) DMSO (compound solvent), varying compound concentrations, and 100 μM GTP. All components except GTP were preincubated at 30 °C for 15 min in a 0.24 mL volume. Reaction mixtures were then placed on ice, and the GTP was added in a 10 μL volume. Assembly was monitored in Beckman DU7400/7500 spectrophotometers equipped with electronic temperature controllers and driven by a custom program. The samples were transferred to cuvettes held at 0 °C, and the temperature was jumped to 30 °C over about 30 s. Change in turbidity was measured for 20 min at 350 nm, and the IC50 was defined as the compound concentration that reduced the extent of reaction by 50%. For the colchicine binding assay, reaction mixtures contained 0.05 mg mL^−1 (0.5 μM) tubulin, 5.0 μM [^3H]colchicine, 5% (v/v) DMSO (compound solvent), compound as indicated, and components found to stabilize the colchicine binding activity of tubulin. […] The filters were counted in a Beckman scintillation counter, with correction for the amount of radiolabel bound to filters in the absence of tubulin.

[2] = tested on: tubulin (colchicine site); assay: Inhibition of [3H]colchicine binding to tubulin; conditions: 0.5 μM tubulin, 5 μM [3H]colchicine
Protocol: The methods used to determine the IC50 values for tubulin assembly and inhibition of [^3H]colchicine binding were recently described in detail.[96] In brief, for the assembly assay, 0.25 mL reaction mixtures contained 1.0 mg mL^−1 (10 μM) tubulin, 0.8 M monosodium glutamate (pH 6.6 with HCl in 2.0 M stock solution), 4% (v/v) DMSO (compound solvent), varying compound concentrations, and 100 μM GTP. All components except GTP were preincubated at 30 °C for 15 min in a 0.24 mL volume. Reaction mixtures were then placed on ice, and the GTP was added in a 10 μL volume. Assembly was monitored in Beckman DU7400/7500 spectrophotometers equipped with electronic temperature controllers and driven by a custom program. The samples were transferred to cuvettes held at 0 °C, and the temperature was jumped to 30 °C over about 30 s. Change in turbidity was measured for 20 min at 350 nm, and the IC50 was defined as the compound concentration that reduced the extent of reaction by 50%. For the colchicine binding assay, reaction mixtures contained 0.05 mg mL^−1 (0.5 μM) tubulin, 5.0 μM [^3H]colchicine, 5% (v/v) DMSO (compound solvent), compound as indicated, and components found to stabilize the colchicine binding activity of tubulin. Incubation was for 10 min at 37 °C, at which time the amount of colchicine bound to the tubulin is 40–60% of maximum. Each reaction mixture was diluted with 2.0 mL of ice cold water and poured onto a single Whatman DEAE-cellulose filter (tubulin binds tightly to the filter, and unbound colchicine passes through). Gravity filtration was used for the samples, and the filters were then washed with three 2.0 mL aliquots of ice cold water (vacuum aspiration). The filters were counted in a Beckman scintillation counter, with correction for the amount of radiolabel bound to filters in the absence of tubulin.

[3] = tested on: Colo205 human colon adenocarcinoma cell line; assay: In vitro cytotoxicity MTT assay; format: cell-based; conditions: 72 h incubation, MTT
Excerpt: (§1) Four cell lines were used in this study: the doxorubicin-sensitive Colo205 (CCL-222, ATCC, Manassas, VA, USA) human colon adenocarcinoma cell line; the doxorubicin-resistant Colo320/MDR-LRP expressing P-glycoprotein (P-gp, ABCB1) (MDR1)-LRP (CCL-220.1, ATCC) human colon adenocarcinoma cell line; the hormone-responsive MCF-7 breast cancer cell line and the normal MRC-5 human embryonal lung fibroblast cell line (CCL-171, ATCC). The human cancer cell lines were purchased from LGC Promochem (Teddington, UK), and the MRC-5 cell line is a Sigma-Aldrich (Merck KGaA, Darmstadt, Germany) product. The Colo205 and Colo320 cell lines were cultured in RPMI 1640 medium supplemented with 10% fetal bovine serum (FBS), 2 mM L-glutamine, 1 mM Na-pyruvate and 10 mM HEPES. The MCF-7 and MRC-5 cells were cultured in Eagle's Minimal Essential Medium (EMEM) containing 4.5 g L^−1 of glucose and supplemented with a non-essential amino acid mixture, a selection of vitamins and 10% FBS. All cell lines were incubated at 37 °C, 5% CO2, 95% air atmosphere. The cells were detached with Trypsin-Versene (EDTA) solution for 5 min at 37 °C.
(§2) Prior to the cytotoxicity assays 10 mM stock solutions of the tested compounds were prepared in DMSO. These stock solutions were diluted with the culture medium (EMEM or RPMI 1640), and twofold serial dilutions of the compounds were prepared in 100 μL of the appropriate medium. […] The positive control was doxorubicin (Merck), and CuCl2 was also tested. All cancer cells were treated with Trypsin-Versene (EDTA) solution. A cell density of 1 × 10^4 cells was adjusted for the colon adenocarcinoma cells in 100 μL of RPMI 1640 medium and were added to each well, except for the medium control wells. The final volume was 200 μL in the wells containing compounds and cells. The MCF-7 and MRC-5 cells were seeded overnight prior to the assay. The following day, the serial dilution of the compounds were made in separate plates and added to the cells. The culture plates were incubated at 37 °C for 72 h; and at the end of the incubation period, 20 μL of 5 mg mL^−1 3-(4,5-dimethylthiazol-2-yl)-2,5-diphenyltetrazolium bromide (MTT) solution was added to each well and incubated for 4 h at 37 °C. The plates were further incubated at 37 °C overnight following the addition of 100 μL of sodium dodecyl sulfate (SDS) solution (10% in 0.01 M HCl). The optical density (OD) was measured at 450 nm (ref. 620 nm) with a Multiscan EX ELISA reader to follow the cell growth. Inhibition of cell growth (expressed as IC50: inhibitory concentration that reduces by 50% the growth of the cells exposed to the tested compounds) was determined from the sigmoid curve, where 100 − ((ODsample − ODmedium control)/(ODcell control − ODmedium control)) × 100 values were plotted against the logarithm of compound concentrations. The sigmoidal dose–response model (comparing variable and fixed slopes) of the GraphPad Prism software[88] was used to fit the curves. The IC50 values are averages from at least 3 independent experiments.

[4] = tested on: doxorubicin-resistant Colo320 human colon adenocarcinoma cell line; assay: In vitro cytotoxicity MTT assay; format: cell-based; conditions: 72 h incubation, MTT
Excerpt: as §1, §2

[5] = tested on: normal human embryonal lung fibroblast cells (MRC-5); assay: In vitro cytotoxicity MTT assay; format: cell-based; conditions: 72 h incubation
Excerpt: as §1, §2

[6] = tested on: MCF-7 breast cancer cells; assay: In vitro cytotoxicity MTT assay; format: cell-based, human; conditions: 72 h incubation, MTT
Protocol: The human cancer cell lines were purchased from LGC Promochem (Teddington, UK), and the MRC-5 cell line is a Sigma-Aldrich (Merck KGaA, Darmstadt, Germany) product. […] The MCF-7 and MRC-5 cells were cultured in Eagle's Minimal Essential Medium (EMEM) containing 4.5 g L^−1 of glucose and supplemented with a non-essential amino acid mixture, a selection of vitamins and 10% FBS. […] The cells were detached with Trypsin-Versene (EDTA) solution for 5 min at 37 °C.
Prior to the cytotoxicity assays 10 mM stock solutions of the tested compounds were prepared in DMSO. […] The positive control was doxorubicin (Merck), and CuCl2 was also tested. All cancer cells were treated with Trypsin-Versene (EDTA) solution. […] The final volume was 200 μL in the wells containing compounds and cells. The MCF-7 and MRC-5 cells were seeded overnight prior to the assay. The following day, the serial dilution of the compounds were made in separate plates and added to the cells. The culture plates were incubated at 37 °C for 72 h; and at the end of the incubation period, 20 μL of 5 mg mL^−1 3-(4,5-dimethylthiazol-2-yl)-2,5-diphenyltetrazolium bromide (MTT) solution was added to each well and incubated for 4 h at 37 °C. The plates were further incubated at 37 °C overnight following the addition of 100 μL of sodium dodecyl sulfate (SDS) solution (10% in 0.01 M HCl). The optical density (OD) was measured at 450 nm (ref. 620 nm) with a Multiscan EX ELISA reader to follow the cell growth. […] The sigmoidal dose–response model (comparing variable and fixed slopes) of the GraphPad Prism software[88] was used to fit the curves. The IC50 values are averages from at least 3 independent experiments.

Structure (SMILES)	IC50 [1]	Inhibition of colchicine binding % inhibition ± SD ([2]; 0.5 μM inhibitor)	Inhibition of colchicine binding % inhibition ± SD ([2]; 5 μM inhibitor)	IC50 [3]	IC50 [4]	IC50 [5]	IC50 [6]
COc1ccc(/C=C\c2cc(OC)c(OC)c(OC)c2)cc1O [CA-4, combretastatin A-4, reference compound]	[…]	81 ± 4%	98 ± 0.9%				
[Cl][Cu][Cl] [CuCl2, reference compound]				33 ± 1 µM	20 ± 2 µM	40 ± 1 µM	32 ± 3 µM

Reference: PMC10368209, “Indolo[2,3-e]benzazocines and indolo[2,3-f]benzazonines and their copper(II) complexes as microtubule destabilizing agents” (Dalton Transactions (Cambridge, England : 2003), 2023)
